Experimental findings from patent US10077261B2, “Imidazolin-5-one derivative useful as FASN inhibitors for the treatment of cancer” (Janssen Pharmaceutica NV, priority 2012, dated 2018) are described below.

Some results are limits rather than exact numbers.

For experiment [1], the target named is T1, hFASN enzyme (full length) (Homo sapiens, UniProt P49327).
T1 construct: 10 μL hFASN enzyme (full length, 300 ng, purified in house); made in house
The experiment in a line: Fatty Acid Synthase (FASN) inhibition scintillation proximity assay. In kind it is biochemical. The note with it: for inhibition at 10 µM: read-out: Human FASN % inhibition @ 10 μM, 10 μM test compound; for IC50: read-out: Human FASN pIC50 (converted). The gist of the method:
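Full-length in-house purified enzyme (300 ng) was tested in 100 mM KH2PO4 pH 7.5, 1 mM DTT with ³H-acetyl-CoA and malonyl-CoA as substrates; compounds ranged 0.01–30 μM. Reactions were stopped with streptavidin imaging beads, read by LEADseeker at 610 nm, and fitted to a 4-parameter logistic curve.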

In experiment [2] the test system is A2780 ovarian cells. The experiment in a line: A2780 ovarian cell proliferation assay in lipid reduced medium, without palmitate (MTT). The note with it: Homo sapiens, A2780, 96 h; read-out: pIC50 A2780 Ovarian Cell, Without Palmitate (converted). In kind it is cell-based. On the procedure: (§1) The biological assays described below correspond to comparative assays for ovarian cell proliferation. […] Compounds active in the absence of palmitate would not be expected to be active in the control.
(§2) 2500 cells were seeded in a 96-well clear well plate in 200 μL RPMI1640 with 10% Fetal Calf Serum (Hyclone), and incubated at 37° C., 5% CO2. Blanks were wells without cells. The next day the culture medium was aspirated and replaced by 160 μL culture medium with 10% Lipid-Reduced Serum (LRS, Hyclone). 20 μL test compound (at concentrations of 30 μM, 10 μM, 3 μM, 1 μM, 0.30 μM, 0.10 μM, 0.03 μM and 0.01 μM)/DMSO dilution followed by 20 μL ethanol-BSA solution were added to a final concentrations of 0.2% DMSO, 0.2% fatty-acid-free BSA, 0.25% ethanol. After 96 h incubation an MTT assay was performed. The absorbance was measured at 544 nm on a SPECTRAMAX brand microplate reader (Molecular Devices).
where mLC and mHC were the means of the low control wells and high control wells on the plate, after manual exclusion of outliers. A plot of Controlmin versus test compound concentration was fitted to a 4-parameter logistic curve using a non-linear least squares regression method.
(§3) Representative compounds of the present invention were tested according to the procedure as described in Biological Example 3 above, with results as listed in Table 8, below.

Experiment [3] deals with A2780 ovarian cells. The experiment is described as follows: A2780 ovarian cell proliferation assay in lipid reduced medium, with palmitate (MTT). It counts as cell-based. The note with it: Homo sapiens, A2780, 96 h; read-out: pIC50 A2780 Ovarian Cell, With Palmitate (converted). On the procedure: as §1
as §2, with “palmitate-BSA” for “ethanol-BSA”, “DMSO, 25 μM palmitate (Sigma, P0500, 10 mM stock solution in ethanol)” for “DMSO,”, “incubation,” for “incubation”
A best fit curve was fitted by a minimum sum of squares method, plotting Controlmin versus test compound concentration.
as §3

T1 sequence (P49327 whole entry): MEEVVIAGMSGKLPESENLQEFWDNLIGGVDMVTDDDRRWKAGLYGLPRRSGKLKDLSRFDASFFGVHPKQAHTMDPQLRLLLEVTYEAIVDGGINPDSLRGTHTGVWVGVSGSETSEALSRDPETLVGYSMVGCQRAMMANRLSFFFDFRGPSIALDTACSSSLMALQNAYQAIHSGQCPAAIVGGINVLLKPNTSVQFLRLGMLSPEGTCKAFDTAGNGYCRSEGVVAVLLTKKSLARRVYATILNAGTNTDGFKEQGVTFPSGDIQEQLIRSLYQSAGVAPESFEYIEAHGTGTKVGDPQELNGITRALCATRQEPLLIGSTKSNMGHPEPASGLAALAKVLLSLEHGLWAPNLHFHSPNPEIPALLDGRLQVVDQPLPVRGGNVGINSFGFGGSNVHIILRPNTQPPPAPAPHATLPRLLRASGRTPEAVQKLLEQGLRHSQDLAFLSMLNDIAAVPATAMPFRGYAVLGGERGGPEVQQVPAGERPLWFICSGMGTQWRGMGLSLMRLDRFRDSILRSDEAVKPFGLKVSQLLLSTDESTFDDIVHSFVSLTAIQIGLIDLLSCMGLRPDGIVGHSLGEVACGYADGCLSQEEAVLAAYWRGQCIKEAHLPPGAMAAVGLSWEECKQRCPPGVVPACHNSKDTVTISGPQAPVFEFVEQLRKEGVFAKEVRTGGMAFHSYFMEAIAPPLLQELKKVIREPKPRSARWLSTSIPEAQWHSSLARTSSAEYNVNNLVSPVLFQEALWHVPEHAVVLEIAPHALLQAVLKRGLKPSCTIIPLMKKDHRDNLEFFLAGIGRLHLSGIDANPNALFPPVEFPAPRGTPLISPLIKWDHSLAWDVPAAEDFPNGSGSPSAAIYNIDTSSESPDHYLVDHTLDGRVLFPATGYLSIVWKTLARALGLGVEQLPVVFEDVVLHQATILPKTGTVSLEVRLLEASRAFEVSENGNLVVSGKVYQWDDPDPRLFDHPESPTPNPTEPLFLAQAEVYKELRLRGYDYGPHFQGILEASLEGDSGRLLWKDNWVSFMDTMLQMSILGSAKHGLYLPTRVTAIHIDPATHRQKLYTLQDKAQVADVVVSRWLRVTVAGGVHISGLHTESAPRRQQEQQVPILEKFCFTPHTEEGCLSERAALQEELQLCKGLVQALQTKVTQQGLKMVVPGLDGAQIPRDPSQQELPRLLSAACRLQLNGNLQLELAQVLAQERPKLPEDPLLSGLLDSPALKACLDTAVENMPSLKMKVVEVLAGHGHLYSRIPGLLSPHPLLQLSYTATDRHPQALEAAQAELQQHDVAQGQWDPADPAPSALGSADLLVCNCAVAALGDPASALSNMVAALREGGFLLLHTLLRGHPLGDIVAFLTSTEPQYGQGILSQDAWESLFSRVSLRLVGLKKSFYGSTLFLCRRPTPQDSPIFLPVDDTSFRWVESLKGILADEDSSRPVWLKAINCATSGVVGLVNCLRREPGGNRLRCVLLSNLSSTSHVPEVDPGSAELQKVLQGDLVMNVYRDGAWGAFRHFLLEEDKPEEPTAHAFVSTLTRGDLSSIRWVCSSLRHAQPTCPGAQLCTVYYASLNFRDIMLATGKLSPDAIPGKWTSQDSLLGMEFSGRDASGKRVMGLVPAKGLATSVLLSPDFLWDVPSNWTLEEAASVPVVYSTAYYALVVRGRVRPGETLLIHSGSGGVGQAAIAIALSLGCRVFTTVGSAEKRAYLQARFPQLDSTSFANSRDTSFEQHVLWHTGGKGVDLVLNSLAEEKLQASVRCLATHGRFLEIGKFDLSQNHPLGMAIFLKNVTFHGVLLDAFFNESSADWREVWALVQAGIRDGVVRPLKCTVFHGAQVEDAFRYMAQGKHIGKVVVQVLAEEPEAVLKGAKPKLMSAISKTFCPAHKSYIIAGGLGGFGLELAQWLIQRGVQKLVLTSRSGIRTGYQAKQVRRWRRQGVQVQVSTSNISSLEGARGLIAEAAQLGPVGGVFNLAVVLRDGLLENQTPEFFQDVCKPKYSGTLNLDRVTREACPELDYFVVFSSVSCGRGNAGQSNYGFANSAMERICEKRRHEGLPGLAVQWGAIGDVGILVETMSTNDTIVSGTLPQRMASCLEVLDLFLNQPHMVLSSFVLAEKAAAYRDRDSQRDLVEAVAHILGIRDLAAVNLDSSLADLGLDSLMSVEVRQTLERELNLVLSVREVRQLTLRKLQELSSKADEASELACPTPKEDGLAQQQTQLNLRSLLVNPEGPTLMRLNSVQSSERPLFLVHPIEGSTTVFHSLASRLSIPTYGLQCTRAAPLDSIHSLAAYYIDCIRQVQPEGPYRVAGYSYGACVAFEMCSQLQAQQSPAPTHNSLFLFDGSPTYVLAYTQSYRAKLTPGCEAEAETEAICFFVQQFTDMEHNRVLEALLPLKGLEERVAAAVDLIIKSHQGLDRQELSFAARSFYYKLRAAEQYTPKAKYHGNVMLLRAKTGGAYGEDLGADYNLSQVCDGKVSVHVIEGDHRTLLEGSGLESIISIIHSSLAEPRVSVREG

For `CC(C)C(=O)N1CCC2(CC1)N=C(c1ccc(-c3ccc4cnccc4c3)cc1)N(CC1CN(C(=O)C3CC3)C1)C2=O` [compound 137, 3-{[1-(Cyclopropylcarbonyl)azetidin-3-yl]methyl}-2-(4-isoquinolin-6-ylphenyl)-8-(2-methylpropanoyl)-1,3,8-triazaspiro[4.5]dec-1-en-4-one], the inhibition at 10 µM in experiment [1] was found to be 112%. The figures for the IC50 (in experiment [1]; in the experiment with A2780 ovarian cells [2]; with A2780 ovarian cells [3]) were 0.178 µM, around 0.851 µM and around 6.03 µM, respectively.
On to `CC1(C(=O)N2CC[C@@H](CN3C(=O)C4(CC4)N=C3c3ccc(-c4ccc5cc(F)ccc5c4)cc3F)C2)CC1` [compound 363, (R)-5-(2-fluoro-4-(6-fluoronaphthalen-2-yl)phenyl)-6-((1-(1-methylcyclopropancecarbonyl)pyrrolidin-3-yl)methyl)-4,6-diazaspiro[2.4]hept-4-en-7-one], for which the inhibition at 10 µM in experiment [1] was 94%. For the same compound, the IC50 in experiment [1] was 0.0398 µM; in the experiment with A2780 ovarian cells [2] it was around 0.00646 µM; in the experiment on A2780 ovarian cells [3], around 1.51 µM.
As to `Cn1cc(-c2ccc(-c3ccc(C4=NC5(CC5)C(=O)N4C[C@@H]4CCN(C(=O)C5(C)CC5)C4)c(F)c3)cc2)cn1` [compound 364, (R)-5-(3-fluoro-4′-(1-methyl-1H-pyrazol-4-yl)-[1,1′-biphenyl]-4-yl)-6-((1-(1-methylcyclopropanecarbonyl)pyrrolidin-3-yl)methyl)-4,6-diazaspiro[2.4]hept-4-en-7-one], in experiment [1], the inhibition at 10 µM stood at 89%. For the same compound, the IC50 in experiment [1] was 0.0575 µM; in the experiment on A2780 ovarian cells [2], around 0.00295 µM; with A2780 ovarian cells [3], 0.229 µM.
Regarding `COc1ccc2cc(-c3ccc(C4=NC5(CC5)C(=O)N4CC4CN(C(=O)C5(O)CC5)C4)c(F)c3)ccc2c1` [compound 366, 5-(2-fluoro-4-(6-methoxynaphthalen-2-yl)phenyl)-6-((1-(1-hydroxycyclopropanecarbonyl)azetidin-3-yl)methyl)-4,6-diazaspiro[2.4]hept-4-en-7-one], the inhibition at 10 µM in experiment [1] is 89%. Besides, the results for the IC50 (in experiment [1]; in the experiment on A2780 ovarian cells [2]; in the experiment with A2780 ovarian cells [3]) were 0.0617 µM, around 0.00562 µM and 0.562 µM, respectively.
With `Cc1cc(-c2ccc3c(cnn3C)c2)ccc1C1=NC2(CC2)C(=O)N1CC1CN(C(=O)c2nccs2)C1` [compound 518, 5-[2-Methyl-4-(1-methyl-1H-indazol-5-yl)phenyl]-6-{[1-(1,3-thiazol-2-ylcarbonyl)azetidin-3-yl]methyl}-4,6-diazaspiro[2.4]hept-4-en-7-one], the inhibition at 10 µM in experiment [1] was determined as 62%. Besides, the results for the IC50 (in experiment [1]; in the experiment on A2780 ovarian cells [2]; in the experiment on A2780 ovarian cells [3]) were around 4.68 µM, around 3.98 µM and around 4.07 µM, respectively.
Consider `O=C(C1CC1)N1CC(CN2C(=O)C3(CC3)N=C2c2ccc(-c3ccc4c(cnn4C4CC4)c3)cc2F)C1` [compound 522, 6-{[1-(Cyclopropylcarbonyl)azetidin-3-yl]methyl}-5-[4-(1-cyclopropyl-1-indazol-5-yl)-2-fluorophenyl]-4,6-diazaspiro[2.4]hept-4-en-7-one], for which, in experiment [1], the inhibition at 10 µM turned out to be 79%. In addition, the IC50 in experiment [1] is 1.66 µM; in the experiment on A2780 ovarian cells [2], 2.88 µM; in the experiment with A2780 ovarian cells [3] it was above 10 µM.
Regarding `O=C(C1CC1)N1CC(CN2C(=O)C3(CC3)N=C2c2ccc(-c3ccc4nn(CC5CC5)cc4c3)cc2F)C1` [compound 524, 6-{[1-(Cyclopropylcarbonyl)azetidin-3-yl]methyl}-5-{4-[2-(cyclopropylmethyl)-2H-indazol-5-yl]-2-fluorophenyl}-4,6-diazaspiro[2.4]hept-4-en-7-one], the inhibition at 10 µM in experiment [1] came out at 73%. The IC50 is 2.09 µM in experiment [1], 4.9 µM with A2780 ovarian cells [2] and above 10 µM in the experiment with A2780 ovarian cells [3].
On to `CC(C)n1ccc2cc(-c3ccc(C4=NC5(CC5)C(=O)N4CC4CN(C(=O)C5CC5)C4)c(F)c3)ccc21` [compound 525, 6-{[1-(Cyclopropylcarbonyl)azetidin-3-yl]methyl}-5-{2-fluoro-4-[1-(1-methylethyl)-1H-indol-5-yl]phenyl}-4,6-diazaspiro[2.4]hept-4-en-7-one], for which, in experiment [1], the inhibition at 10 µM was 84%. The IC50 in experiment [1] is 1.05 µM; in the experiment on A2780 ovarian cells [2], 4.9 µM; in the experiment with A2780 ovarian cells [3] it was above 10 µM.
In the case of `O=C(C1CC1)N1CC(CN2C(=O)C3(CC3)N=C2c2ccc(-c3ccc4c(cnn4CCO)c3)cc2F)C1` [compound 527, 6-{[1-(Cyclopropylcarbonyl)azetidin-3-yl]methyl}-5-{2-fluoro-4-[1-(2-hydroxyethyl)-1H-indazol-5-yl]phenyl}-4,6-diazaspiro[2.4]hept-4-en-7-one], the inhibition at 10 µM in experiment [1] stood at 83%. The IC50 is 1.58 µM in experiment [1], around 1.95 µM in the experiment on A2780 ovarian cells [2] and above 10 µM with A2780 ovarian cells [3].
In the same order, the values of `O=C(C1CC1)N1CC(CN2C(=O)C3(CC3)N=C2c2ccc(-c3cc4ccccc4nc3O)cc2)C1` [compound 532, 6-{[1-(Cyclopropylcarbonyl)azetidin-3-yl]methyl}-5-[4-(2-hydroxyquinolin-3-yl)phenyl]-4,6-diazaspiro[2.4]hept-4-en-7-one] are 58%, 5.37 µM, above 10 µM and above 10 µM.
`N#CCCn1ncc2cc(-c3ccc(C4=NC5(CC5)C(=O)N4CC4CN(C(=O)C5CC5)C4)cc3)ccc21` [compound 533, 3-{5-[4-(6-{[1-(Cyclopropylcarbonyl)azetidin-3-yl]methyl}-7-oxo-4,6-diazaspiro[2.4]hept-4-en-5-yl)phenyl]-1H-indazol-1-yl}propanenitrile]: the inhibition at 10 µM in experiment [1] was 54%. Besides, the IC50 was 7.59 µM in experiment [1], above 10 µM in the experiment with A2780 ovarian cells [2] and above 10 µM in the experiment with A2780 ovarian cells [3].
With `Cc1cc(Cl)c2ccc(-c3ccc(C4=NC5(CC5)C(=O)N4CC4CN(C(=O)C5CC5)C4)cc3)cc2n1` [compound 535, 5-[4-(4-Chloro-2-methylquinolin-7-yl)phenyl]-6-{[1-(cyclopropylcarbonyl)azetidin-3-yl]methyl}-4,6-diazaspiro[2.4]hept-4-en-7-one], in experiment [1], the inhibition at 10 µM came to 53%. In addition, the IC50 in the experiment on A2780 ovarian cells [2] is 6.61 µM; in the experiment with A2780 ovarian cells [3], 7.76 µM.
As to `O=C(C1CC1)N1CC(CN2C(=O)C3(CC3)N=C2c2ccc(-c3ccc4nncn4c3)cc2)C1` [compound 539, 6-{[1-(Cyclopropylcarbonyl)azetidin-3-yl]methyl}-5-(4-[1,2,4]triazolo[4,3-a]pyridin-6-ylphenyl)-4,6-diazaspiro[2.4]hept-4-en-7-one], the inhibition at 10 µM in experiment [1] is 54%. The values for the IC50 (in experiment [1]; in the experiment on A2780 ovarian cells [2]; with A2780 ovarian cells [3]) were around 6.31 µM, above 10 µM and above 10 µM, respectively.
`O=C(C1CC1)N1CC(CN2C(=O)C3(CC3)N=C2c2ccc(-c3ccc4ccc(Cl)nc4c3)cc2)C1` [compound 540, 5-[4-(2-Chloroquinolin-7-yl)phenyl]-6-{[1-(cyclopropylcarbonyl)azetidin-3-yl]methyl}-4,6-diazaspiro[2.4]hept-4-en-7-one]: in experiment [1], the inhibition at 10 µM came out at 64%. Moreover, the results for the IC50 (in experiment [1]; in the experiment with A2780 ovarian cells [2]; with A2780 ovarian cells [3]) were 5.01 µM, 4.47 µM and 9.33 µM, respectively.
`O=C(C1CC1)N1CC(CN2C(=O)C3(CC3)N=C2c2ccc(-c3ccc4nn(CCO)cc4c3)cc2)C1` [compound 549, 6-{[1-(Cyclopropylcarbonyl)azetidin-3-yl]methyl}-5-{4-[2-(2-hydroxyethyl)-2H-indazol-5-yl]phenyl}-4,6-diazaspiro[2.4]hept-4-en-7-one]: in experiment [1], the inhibition at 10 µM amounted to 83%. Moreover, the IC50 was 1.78 µM in experiment [1], 3.8 µM in the experiment on A2780 ovarian cells [2] and above 10 µM with A2780 ovarian cells [3].
Turning to `CC(C)n1ncc2ccc(-c3ccc(C4=NC5(CC5)C(=O)N4CC4CN(C(=O)C5CC5)C4)cc3)cc21` [compound 550, 6-{[1-(Cyclopropylcarbonyl)azetidin-3-yl]methyl}-5-{4-[1-(1-methylethyl)-1H-indazol-6-yl]phenyl}-4,6-diazaspiro[2.4]hept-4-en-7-one], the inhibition at 10 µM in experiment [1] worked out at 80%. Further, the IC50 in experiment [1] was 1.82 µM; with A2780 ovarian cells [2], 3.47 µM; with A2780 ovarian cells [3] it was around 10 µM.
